Like-named read-outs stand apart in the source and are kept apart here. Peptide text beside a SMILES is read from it. * marks the point of attachment. Cbz = O=C(OCc1ccccc1)*
Columns and labels:
[1] = test system: GlyR α1 T162M protein in HEK293 cells; assay: Protein degradation analysis on whole cell lysates (Western blot) with proteasome or lysosome inhibitors; format: cell-based, human; settings: for GlyR protein level after lysosomal block: leupeptin 200 μg/mL
Protocol: (§1) HEK293 cells transiently expressing GlyR α1 wt or α1 variants were incubated under standard growth conditions with proteasome or lysosome inhibitors for specific time periods (all inhibitors have been obtained from Sigma-Aldrich, St. Louis, MO, USA). Cells were incubated with 1 μM of MG132 for 1, 2, and 4 h. The lysosome inhibitor leupeptin (200 μg/mL) was incubated for 6, 12, and 24 h together with the transfected cells.
(§2) At each time point, media was aspirated and cells were washed twice with PBS followed by incubation with CytoBuster Protein Extraction Reagent (Merck Millipore, Darmstadt, Germany) supplemented with protease inhibitor for 5 min at room temperature. The resulting cell suspension was centrifuged for 5 min at 16.000 g and 4°C resulting in a supernatant containing solubilized proteins.
(§3) Western Blot Analysis—For SDS-PAGE, 11% polyacrylamide gels were freshly prepared, followed by Western blot on nitrocellulose membranes (GE Healthcare, Freiburg, Germany). Membranes were blocked for 1 h with 5% BSA in TBS-T (TBS with 1% Tween 20). Primary antibodies were incubated overnight at 4°C. GlyR α1 wt and GlyR mutants were detected with the pan-α antibody MAb4a (Synaptic Systems, Göttingen, Germany), recognizing an epitope in the N-terminus of the GlyRs (residues 96–105). In biotinylation experiments, cadherin was chosen as loading control detected by the pan-Cadherin antibody (Cell Signaling Technology, Danvers, MA, USA). For lysate analysis, GAPDH served as a loading control (Calbiochem, Darmstadt, Germany). Signals were detected using the ECLplus system (GE Healthcare, Freiburg, Germany).

[2] = test system: GlyR α1 wt protein in HEK293 cells; assay: as above; format: cell-based, human
Protocol: as §1, §2, §3

GlyR α1 G160A = GlyR α1 G160A (Homo sapiens, UniProt P23415, G188A); settings: 100 μM glycine
Sequence of GlyR α1 G160A (P23415 29-457 G188A): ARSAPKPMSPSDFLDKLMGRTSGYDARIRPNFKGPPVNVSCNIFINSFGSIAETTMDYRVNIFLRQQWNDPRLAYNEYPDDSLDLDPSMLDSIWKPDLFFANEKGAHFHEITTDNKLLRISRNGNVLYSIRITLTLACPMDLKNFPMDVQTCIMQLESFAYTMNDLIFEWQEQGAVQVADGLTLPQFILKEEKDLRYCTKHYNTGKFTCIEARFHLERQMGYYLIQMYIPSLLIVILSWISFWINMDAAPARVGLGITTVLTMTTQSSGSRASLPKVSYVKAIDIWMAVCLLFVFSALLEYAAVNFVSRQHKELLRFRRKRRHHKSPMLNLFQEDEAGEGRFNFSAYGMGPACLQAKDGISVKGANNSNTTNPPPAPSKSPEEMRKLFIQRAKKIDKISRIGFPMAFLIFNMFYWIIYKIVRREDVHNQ
Protocol: (§4) HEK293 cells were transiently transfected using a modified calcium-phosphate precipitation method, were a mixture of plasmid DNA, CaCl2, and 2x HBS buffer (50 mM HEPES, 12 mM glucose, 10 mM KCl, 280 mM NaCl, 1.5 mM Na2HPO4) was applied onto the cells.
(§5) Maximal current amplifications (Imax) were measured by the patch clamp technique in a whole-cell configuration mode. Current signals were amplified with an EPC-9 amplifier (HEKA, Lambrecht, Germany). […] The extracellular buffer consisted of 137 mM NaCl, 5.4 mM KCl, 1.8 mM CaCl2, 1 mM MgCl2, […], 10 mM HEPES, with a pH adjusted to 7.4 with NaOH. The internal buffer was 120 mM CsCl, 20 mM N(Et)4Cl, 1 mM CaCl2, 3 mM MgCl2, 11 mM EGTA, 10 mM HEPES with a pH adjusted to 7.4 with CsOH. Recording pipettes were fabricated from borosilicate capillaries with an open resistance of about 4 MΩ. Current responses were measured at a holding potential of −60 mV. All experiments were carried out at room temperature. Error bars refer to S.E.M. values.

GlyR α1 G160R = GlyR α1 G160R (Homo sapiens, UniProt P23415, G188R); settings: 100 μM glycine
Sequence of GlyR α1 G160R (P23415 29-457 G188R): as the sequence (P23415 29-457 G188A) above, with A160R counted along it
Protocol: as §4, §5

GlyR α1 G160S = GlyR α1 G160S (Homo sapiens, UniProt P23415, G188S); settings: 100 μM glycine
Sequence of GlyR α1 G160S (P23415 29-457 G188S): as the sequence (P23415 29-457 G188A) above, with A160S counted along it
Protocol: as §4, §5

GlyR α1 T162 mutants = settings: glycine 3–10 mM
Protocol: as §4, §5

GlyR α1 T162A = GlyR α1 T162A (Homo sapiens, UniProt P23415, T190A); settings: 100 μM glycine
Sequence of GlyR α1 T162A (P23415 29-457 T190A): as the sequence (P23415 29-457 G188A) above, with A160G, T162A counted along it
Protocol: as §4, §5

GlyR α1 T162D = GlyR α1 T162D (Homo sapiens, UniProt P23415, T190D)
Sequence of GlyR α1 T162D (P23415 29-457 T190D): as the sequence (P23415 29-457 G188A) above, with A160G, T162D counted along it
Protocol: as §4, §5

GlyR α1 T162M = GlyR α1 T162M (Homo sapiens, UniProt P23415, T190M); settings: 100 μM glycine
Sequence of GlyR α1 T162M (P23415 29-457 T190M): as the sequence (P23415 29-457 G188A) above, with A160G, T162M counted along it
Protocol: as §4, §5

GlyR α1 T162N = GlyR α1 T162N (Homo sapiens, UniProt P23415, T190N); settings: 100 μM glycine
Sequence of GlyR α1 T162N (P23415 29-457 T190N): as the sequence (P23415 29-457 G188A) above, with A160G, T162N counted along it
Protocol: as §4, §5

GlyR α1 T162P = GlyR α1 T162P (Homo sapiens, UniProt P23415, T190P); settings: 100 μM glycine
Sequence of GlyR α1 T162P (P23415 29-457 T190P): as the sequence (P23415 29-457 G188A) above, with A160G, T162P counted along it
Protocol: as §4, §5

GlyR α1 wt = GlyR α1 wt (Homo sapiens, UniProt P23415); settings: 100 μM glycine
Sequence of GlyR α1 wt (P23415 29-457): as the sequence (P23415 29-457 G188A) above, with A160G counted along it
Protocol: as §4, §5

## CC(C)C[C@@H](C=O)NC(=O)[C@H](CC(C)C)NC(=O)[C@H](CC(C)C)NC(=O)OCc1ccccc1 [MG132] (Cbz-Leu-Leu-Leu-aldehyde)
[1]; 1 μM MG132, 2 h, compared to wt
  GlyR protein level after proteasomal block: significant increase
[2]; 1 μM MG132, 2 h
  GlyR protein level after proteasomal block: not affected

## CC(=O)N[C@@H](CC(C)C)C(=O)N[C@@H](CC(C)C)C(=O)N[C@H](C=O)CCCNC(=N)N [leupeptin]
[1]; 6 h
  GlyR protein level after lysosomal block: did not show any differences
[1]; 12 h, in contrast to wt
  GlyR protein level after lysosomal block: reduced protein levels
[2]; leupeptin 200 μg/mL, 12 h
  GlyR protein level after lysosomal block: accumulations

## NCC(=O)O [glycine]
GlyR α1 G160A; G160A
  Irel current, % of the wt current: 92 ± 12%
GlyR α1 G160A; α1 G160A
  Imax ± SEM: 1453 ± 197 pA
GlyR α1 G160R; G160R
  Irel current, % of the wt current: 69 ± 10%
GlyR α1 G160R; α1 G160R
  Imax ± SEM: 1089 ± 167 pA
GlyR α1 G160S; G160S
  Irel current, % of the wt current: 68 ± 22%
GlyR α1 G160S; α1 G160S
  Imax ± SEM: 1061 ± 359 pA
GlyR α1 T162 mutants
  functionality compared to wt receptors: indistinguishable from wt receptors
GlyR α1 T162A; T162A
  Irel current, % of maximum current of wt: 4 ± 1%
GlyR α1 T162A; α1 T162A
  Imax ± SEM: 148 ± 45 pA
GlyR α1 T162D; T162D, 100 μM glycine, measured in two out of five cells
  Irel current, % of wt currents: less than 1%
GlyR α1 T162D; T162D, saturating glycine 10 mM
  whole cell maximal currents compared to wt: indistinguishable from GlyR α1 wt
GlyR α1 T162D; α1 T162D, 100 μM glycine
  Imax ± SEM: 10 ± 6 pA
GlyR α1 T162M; T162M
  Irel current, % of I100μM compared to wt: 11 ± 5%
GlyR α1 T162M; α1 T162M
  Imax ± SEM: 309 ± 154 pA
GlyR α1 T162N; T162N
  Irel current, % of the wt current: 13 ± 3%
  reduction of the wt response: 85%
GlyR α1 T162N; α1 T162N
  Imax ± SEM: 447 ± 96 pA
GlyR α1 T162P; T162P
  Irel current, % of the wt current: 29 ± 10%
GlyR α1 T162P; α1 T162P
  Imax ± SEM: 832 ± 300 pA
GlyR α1 wt; wt control of the G160 series
  Imax ± SEM: 1571 ± 260 pA
GlyR α1 wt; wt control of the T162 series
  Imax ± SEM: 2916 ± 371 pA
